These results are taken from patent US8895236B2, “Composition for cryopreservation comprising nicotinamide, glycerol and red blood cells” (priority 1998, dated 2014).

Data set [1] concerns red blood cells. In words: Thaw, overall and final hemolysis, glycerol based cryoprotectant with additives (Example 2). The class given is cell-based, human. Particulars: additives in 20% glycerol; for Hemolysis (%) Overall: after glycerol removal by serial dilution with saline; for Hemolysis (%) Final (residual free hemoglobin): final residual free hemoglobin after wash; for Hemolysis (%) Thaw: frozen −80° C. 2-7 days, thawed 37° C. 10 minutes. The protocol: Fifty ml of packed red blood cells were added to a PVC freezing bag. Isotonic saline or preservative solution containing the additional biochemical reagents of interest was mixed with the red blood cells. The samples were treated as follows prior to freezing at −80° C.: • 1. 40% Glycerol • 2. 20% Glycerol • 3. Nicotinamide • 4.
A volume of Glycerolyte 57 (Fenwall) was added slowly until the final concentration of glycerol was achieved. The total volume of all additions was 50 ml, making the final volume of the red blood cell unit 100 ml. The PVC bags were frozen at −80° C. for 2-7 days and thawed by submersion in a 37° C. water bath for 10 minutes. The level of thaw hemolysis was determined as the ratio of free hemoglobin to total hemoglobin. Additionally, the glycerol was removed from the thawed red blood cell units by serial dilution with saline similar to blood bank protocols. The overall hemolysis and the final residual free hemoglobin levels were also determined.

The subject of data set [2] is red blood cells. In words: Thaw and overall hemolysis, 10% glycerol reduced cryopreservation model (Example 3). Particulars: 10% (w/v) glycerol base. Format: cell-based, human. The protocol:
The model used is a reduced glycerol cryopreservation system. 10% (w/v) glycerol is added to the unit prior to freezing at −80° C.
A single unit of packed red blood cells in ADSOL was obtained using standard blood banking protocols. […] From this red blood cell unit 50 ml of red cells was placed into each of 3 PVC freezing bags having a maximum volume of 150 ml. An equal volume (50 ml) was added to each of the bags composed of the above preservation solution and the experimental conditions. The final composition of the first bag was 10% (w/v) glycerol. […] The overall hemolysis was also determined.

For data set [3], the system named is red blood cells. The text has this: Additionally, the glycerol was removed from the thawed red blood cell units by serial dilution with saline similar to blood bank protocols.
Data set [4] concerns red blood cells. The data set can be described thus: Thaw hemolysis of red blood cells frozen at −80° C. with reduced glycerol (Example 1). Format: cell-based, human. Particulars: frozen at −80° C. 2-7 days, thawed 37° C. water bath 10 minutes; ratio of free to total hemoglobin. The protocol:
A significant percentage of the hemolytic damage is shown to be reversed by the addition of a preservative solution containing adenine, glutamine, sodium chloride, mannitol, and dextrose, with the essential additive being dextrose, and final concentrations of 5 mM pentoxifylline and 25 μg/ml flurbiprofen in DMSO as a carrier.
Specifically, 50 ml of packed red blood cells was added to a PVC freezing bag with a maximum volume of 150 ml. Isotonic saline or preservative solution containing the additional biochemical reagents pentoxifylline and flurbiprofen was mixed with the red blood cells. A volume of Glycerolyte 57 (Fenwall) was added slowly until the final concentration of glycerol was achieved. The total volume of all additions was 50 ml, making the final […] of the red blood cell unit 100 ml. […] The levels of thaw hemolysis are shown below in TABLE 1.

Data set [5] deals with red blood cells. The note with it: frozen storage at −80° C., glycerol washed out prior to transfusion; typical level; cited from earlier work.
Data set [6] has as its system red blood cells. The data set can be described thus: Thaw and overall hemolysis, glycerol-based cryoprotectant with biochemical stabilization (Example 4). The class given is cell-based, human. The note with it: for % Hemolysis Thaw: frozen −80° C., thawed 37° C. water bath 10 minutes; for % Hemolysis Overall: overall hemolysis following the wash with 12%, 1.6% and 0.9% saline. The protocol: An aliquot of blood was transferred to a PVC storage bag, to which any experimental agents were added. Glycerol was then added until the desired final glycerol was achieved. This unit was frozen at −80° C., stored and thawed in a 37° C. water bath for 10 minutes. […] The values indicate the percent hemolysis in the thawed sample, the overall amount of hemolysis following the wash and the is percent of residual free hemoglobin in the final sample. Hemolysis is calculated as the ratio of free hemoglobin to the total hemoglobin content in the sample.

Setting [7] is: listed as 20% Glycerol with Control.

The structures appear in SMILES notation.

Turning to `NC(=O)c1cccnc1` [Nicotinamide], in the data set on red blood cells [1], the “Hemolysis (%) Overall” value is given as 22.93%, the “Hemolysis (%) Final (residual free hemoglobin)” value amounted to 0.43% and the “Hemolysis (%) Thaw” value was 8.13%.

`OCC(O)CO` [10% Glycerol, glycerol]: the “% Hemolysis Overall” value with red blood cells [2] (after glycerol removal by serial dilution with saline) came out at 93.62 ± 1.28%. For the same molecule, in the data set with red blood cells [2] (frozen −80° C. 2-7 days, thawed 37° C. 10 minutes), the “% Hemolysis Thaw” value came out at 61.71 ± 1.26%.

Consider `C[S+](C)[O-]` [DMSO, dimethyl sulfoxide], for which the “% Hemolysis” value in the data set with red blood cells [3] is on record as 23.17 ± 0.58%.

For the molecule `OCC(O)CO` [40% Glycerol, glycerol], in the data set on red blood cells [1], the “Hemolysis (%) Overall” value worked out at 14.1%, the “Hemolysis (%) Final (residual free hemoglobin)” value came to 0.45% and the “Hemolysis (%) Thaw” value turned out to be 2.01%. In the data set with red blood cells [4], the “% Hemolysis (level of thaw hemolysis)” value is listed as 1.91%. In addition, in the data set with red blood cells [5], the “hemolysis during the wash procedure” value was 10-15%. In addition, in the data set with red blood cells [6], the “% Hemolysis Thaw” value is 1.9% and the “% Hemolysis Overall” value is reported as 6.1%.

As to `OCC(O)CO` [20% Glycerol, glycerol], in the data set with red blood cells [1], the “Hemolysis (%) Overall” value stood at 41.48%, the “Hemolysis (%) Final (residual free hemoglobin)” value is reported as 1.09% and the “Hemolysis (%) Thaw” value was determined as 9.39%. In the data set on red blood cells [4], the “% Hemolysis (level of thaw hemolysis)” value turned out to be 35.29%. In addition, in the data set on red blood cells [6] (setting [7]), the “% Hemolysis Thaw” value is listed as 37.9% and the “% Hemolysis Overall” value was 52.0%.

Take `OCC(O)CO` [30% Glycerol, glycerol]: the “% Hemolysis (level of thaw hemolysis)” value in the data set on red blood cells [4] was 3.53%.
